Assay results published in patent publication US20060079566A1, “PDK-1/Akt signaling inhibitors” (priority 2003, published 2006).
Like-named read-outs stand apart in the source and are kept apart here.

Columns and labels:
[1] = target: T1, recombinant PDK-1 (Homo sapiens, UniProt O15530); assay: PDK-1 kinase activity (Upstate kit, SGK-coupled, cell-free); format: biochemical
T1 construct: purchased Upstate (Lake Placid, N.Y.)
T1 sequence (O15530 1-556): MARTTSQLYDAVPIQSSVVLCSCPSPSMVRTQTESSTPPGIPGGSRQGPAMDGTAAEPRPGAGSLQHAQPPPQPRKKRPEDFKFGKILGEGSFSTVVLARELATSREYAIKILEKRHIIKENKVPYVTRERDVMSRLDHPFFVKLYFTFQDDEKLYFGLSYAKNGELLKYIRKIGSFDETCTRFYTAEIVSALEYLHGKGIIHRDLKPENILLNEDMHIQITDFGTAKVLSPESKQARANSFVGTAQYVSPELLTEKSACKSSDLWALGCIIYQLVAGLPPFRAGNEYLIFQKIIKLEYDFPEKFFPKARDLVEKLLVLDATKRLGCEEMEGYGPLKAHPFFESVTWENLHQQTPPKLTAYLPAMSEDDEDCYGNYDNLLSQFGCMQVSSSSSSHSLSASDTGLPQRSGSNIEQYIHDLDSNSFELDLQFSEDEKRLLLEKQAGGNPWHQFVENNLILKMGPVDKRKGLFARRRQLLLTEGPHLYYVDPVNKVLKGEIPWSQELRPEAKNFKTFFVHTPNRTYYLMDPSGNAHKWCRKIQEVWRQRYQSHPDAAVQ
Procedure: PDK-1 kinase activity This in vitro assay was performed using a PDK-1 kinase assay kit (Upstate, Lake Placid, N.Y.) according to the vendor's instructions. This cell-free assay is based on the ability of recombinant PDK-1, in the presence of DMSO vehicle or the test agent, to activate its downstream kinase serum- and glucocorticoid-regulated kinase (SGK.) which, in turn, phosphorylates the Akt/SGK-specific peptide substrate RPRAATF with [γ-^32]-ATP. […] The reported values represent the means of two independent determinations.

[2] = test system: PC-3 cells; assay: Cell viability analysis (MTT) in PC-3 cells; format: cell-based, human; conditions: Homo sapiens; inducing apoptotic death in PC-3 cells / PC-3 cell viability; read-out: IC50 PC-3
Procedure: Cell Culture PC-3 (p53−/−) human androgen-nonresponsive prostate cancer cells were purchased from the American […] (Manassas, Va.). Cells were cultured in RPMI 1640 medium (Gibco, Grand Island, N.Y.) supplemented with 10% fetal bovine serum (FBS; Gibco) at 37° C. in a humidified incubator containing 5% CO2.
Cell viability analysis The effect of 4-[5-(4-methylphenyl)-3-(trifluoromethyl)-1H-pyrazol-1-yl]benzenesulfonamide and its derivatives on PC-3 cell viability was assessed by using the MTT {[3-(4,5-dimethylthiazol-2-yl)-2,5-diphenyl-2H-tetrazolium bromide]} assay in six replicates. Cells were grown in 10% FBS-supplemented RPMI 1640 medium in 96-well, flat bottomed plates for 24 h, and were exposed to various concentrations of compounds 1-36 dissolved in DMSO (final concentration ≦0.1%) in 1% serum-containing RPMI 1640 medium for different time intervals. Controls received DMSO vehicle at a concentration equal to that in drug-treated cells. The medium was removed, replaced by 200 μl of 0.5 mg/ml of MTT in 10% FBS-containing RPMI-1640 medium, and cells were incubated in the CO2 incubator at 37° C. for 2 h. Supernatants were removed from the wells, and the reduced MTT dye was solubilized in 200 μL/well DMSO. Absorbance at 570 nm was determined on a plate reader.

[3] = inhibiting recombinant PDK-1 kinase activity, read-out: IC50 PDK-1

Compound	IC50 [1, 3] [µM]	IC50 [2] [µM]	IC50 [1] [µM]
Cc1cc(C)cc(-c2ccc(-c3cc(C(F)(F)F)nn3-c3ccc(S(N)(=O)=O)cc3)cc2)c1 [Compound 53, 4-[5-(3′,5′-dimethyl[1,1;-biphenyl]-4-yl)-3-(trifluoromethyl)-1H-1-yl]benzenesulfonamide]	17	–	–
NC(=O)c1ccc(-n2nc(C(F)(F)F)cc2-c2ccc3c(ccc4ccccc43)c2)cc1 [Compound 61, 4-[5-(2-Phenanthracenyl)-3-(trifluoromethyl)-1H-pyrazol-1-yl]-benzenecarboxamide]	12	7	–
NS(=O)(=O)c1ccc(-n2nc(C(F)(F)F)cc2-c2ccc(-c3cc(Cl)c(Cl)cc3Cl)cc2)cc1 [Compound 49, 4-[5-(2′,4′,5′-trichloro[1,1′-biphenyl]-4-yl)-3(trifluoromethyl)-1H-pyrazol-1-yl]benzenesulfonamide]	–	5	9
NS(=O)(=O)c1ccc(-n2nc(C(F)(F)F)cc2-c2ccc(Cc3ccccc3)cc2)cc1 [Compound 56, 4-[5-(4-(phenylmethyl)phenyl)-3-(trifluoromethyl)-1H-1-yl]benzenesulfonamide]	–	8	–
NN=Cc1ccc(-n2nc(C(F)(F)F)cc2-c2ccc3c(ccc4ccccc43)c2)cc1 [Compound 66, 4-[5-(2-Phenanthrenyl)-3-(trifluoromethyl)-1H-pyrazol-1-yl]-benzaldehyde hydrazone]	16	10	–
CCCCc1ccc(-c2cc(C(F)(F)F)nn2-c2ccc(S(N)(=O)=O)cc2)cc1 [Compound 41, 4-[5-(4-butylphenyl)-3-(trifluoromethyl)-1H-pyrazol-1-yl]benzenesulfonamide]	–	9	20
NS(=O)(=O)c1ccc(-n2nc(C(F)(F)F)cc2-c2c[nH]c3ccccc23)cc1 [Compound 44, 4-[5-(3-indolyl)-3(trifluoromethyl)-1H-pyrazol-1-yl]benzenesulfonamide]	–	31	65
NS(=O)(=O)c1ccc(-n2nc(C(F)(F)F)cc2-c2ccc(-c3cccc(Cl)c3Cl)cc2)cc1 [Compound 48, 4-[5-(2′,3′-dichloro[1,1′-biphenyl]-4-yl)-3-(trifluoromethyl)-1H-pyrazol-1-yl]benzenesulfonamide]	23	10	–
CC(C)(C)c1ccc(-c2ccc(-c3cc(C(F)(F)F)nn3-c3ccc(S(N)(=O)=O)cc3)cc2)cc1 [Compound 55, 4-[5-(4′-tert-buty[1,1′-biphenyl]-4-yl)-3-(trifluoromethyl)-1H-1-yl]benzenesulfonamide]	32	15	–
NS(=O)(=O)c1ccc(-n2nc(C(F)(F)F)cc2-c2ccc3c(c2)Cc2ccccc2-3)cc1 [Compound 57, 4-[5-(9H-fluoren-2-yl)-3-(trifluoromethyl)-1H-1-yl]benzenesulfonamide]	16	–	–
NC(Cc1ccc(-n2nc(C(F)(F)F)cc2-c2ccc3c(ccc4ccccc43)c2)cc1)=NO [Compound 68, 2-{4-[5-(2-Phenanthrenyl)-3-(trifluoromethyl)-1H-pyrazol-1-y]-phenyl}-N-hydroxy-acetamidine]	–	8	–
Cc1ccc(-c2ccc(-c3cc(C(F)(F)F)nn3-c3ccc(S(N)(=O)=O)cc3)cc2)cc1 [Compound 50, 4-[5-(4′-methyl[1,1′-biphenyl]4-yl)-3-(trifluoromethyl)-1H-1-yl]benzenesulfonamide]	–	8	–
Cc1ccc(-c2cc(C(F)(F)F)nn2-c2ccc(S(N)(=O)=O)cc2)cc1 [Comparative Compound, 4-[5-(4-methylphenyl)-3-(trifluoromethyl)-1H-pyrazol-1-yl]benzenesulfonamide, reference compound]	48	30	–
NS(=O)(=O)c1ccc(-n2nc(C(F)(F)F)cc2-c2cc3ccccc3c3ccccc23)cc1 [Compound 60, 4-[5-(9-phenanthrenyl)-3-(trifluoromethyl)-1H-1-yl]benzenesulfonamide]	–	23	42
NS(=O)(=O)c1ccc(-n2nc(C(F)(F)F)cc2-c2ccc(CCBr)cc2)cc1 [Compound 37, 4-[5-(4-(2-bromoethyl)phenyl)-3-(trifluoromethyl)-1H-pyrazol-1-yl]benzenesulfonamide]	–	18	42
CCCCc1ccc(-c2ccc(-c3cc(C(F)(F)F)nn3-c3ccc(S(N)(=O)=O)cc3)cc2)cc1 [Compound 54, 4-[5-(4′-butyl[1,1′-biphenyl]-4-yl)-3-(trifluoromethyl)-1H-1-yl]benzenesulfonamide]	32	15	–
N#CCc1ccc(-n2nc(C(F)(F)F)cc2-c2ccc3c(ccc4ccccc43)c2)cc1 [Compound 67, {4-[5-(2-Phenanthrenyl)-3-(trifluoromethyl)-1H-pyrazol-1-yl]-phenyl}-acetonitrile]	42	25	–
N=C(NO)c1ccc(-n2nc(C(F)(F)F)cc2-c2ccc3c(ccc4ccccc43)c2)cc1 [Compound 63, 4-[5-(2-Phenanthrenyl)-3-(trifluoromethyl)-1H-pyrazol-1-yl]-N-hydroxybenzamidine]	–	25	40
NS(=O)(=O)c1ccc(-n2nc(C(F)(F)F)cc2-c2c3ccccc3cc3ccccc23)cc1 [Compound 58, 4-[5-(9-anthracenyl)-3-(trifluoromethyl)-1H-1-yl]benzenesulfonamide]	12	7	–
NS(=O)(=O)c1ccc(-n2nc(C(F)(F)F)cc2-c2ccc(CCCBr)cc2)cc1 [Compound 38, 4-[5-(4-(3-bromopropyl)phenyl)-3-(trifluoromethyl)-1H-pyrazol-1-yl]benzenesulfonamide]	–	17	38
NS(=O)(=O)c1ccc(-n2nc(C(F)(F)F)cc2-c2ccc(-c3ccc(CBr)cc3)cc2)cc1 [Compound 52, 4-[5-(4′-bromomethyl[1,1′-biphenyl]-4-yl)-3-(trifluoromethyl)-1H-1-yl]benzenesulfonamide]	20	11	–
NC(=O)Nc1ccc(-n2nc(C(F)(F)F)cc2-c2ccc3c(ccc4ccccc43)c2)cc1 [Compound 72, 4-[5-(2-Phenanthrenyl)-3-(trifluoromethyl)-1H-pyrazol-1-yl]phenyl urea]	40	24	–
[N-]=[N+]=NCCCc1ccc(-c2cc(C(F)(F)F)nn2-c2ccc(S(N)(=O)=O)cc2)cc1 [Compound 40, 4-[5-(4-(3-azidopropyl)phenyl)-3-(trifluoromethyl)-1H-pyrazol-1-yl]benzenesulfonamide]	–	18	34
[N-]=[N+]=NCCc1ccc(-c2cc(C(F)(F)F)nn2-c2ccc(S(N)(=O)=O)cc2)cc1 [Compound 39, 4-[5-(4-(2-azidoethyl)phenyl)-3-(trifluoromethyl)-1H-pyrazol-1-yl]benzenesulfonamide]	–	17	32
NS(=O)(=O)c1ccc(-n2nc(C(F)(F)F)cc2-c2ccc(-c3cc(Cl)cc(Cl)c3)cc2)cc1 [Compound 47, 4-[5-(3′,5′-dichloro[1,1′-biphenyl]-4-yl)-3-(trifluoromethyl)-1H-pyrazol-1-yl]benzenesulfonamide]	–	10	18
CC(C)(C)c1ccc(-c2cc(C(F)(F)F)nn2-c2ccc(S(N)(=O)=O)cc2)cc1 [Compound 42, 4-[5-(4-t-butylphenyl)-3-(trifluoromethyl)-1H-pyrazol-1-yl]benzenesulfonamide]	–	18	34
O/N=C/c1ccc(-n2nc(C(F)(F)F)cc2-c2ccc3c(ccc4ccccc43)c2)cc1 [Compound 65, 4-5[-(2-Phenanthrenyl)-3-(trifluoromethyl)-1H-pyraxol-1-yl]-benzaldehyde oxime]	–	14	–
N#Cc1ccc(-n2nc(C(F)(F)F)cc2-c2ccc3c(ccc4ccccc43)c2)cc1 [Compound 62, 4-[5-(2-Phenanthrenyl)-3-(trifluoromethyl)-1H-pyrazol-1-yl]-benzonitrile]	45	30	–
NS(=O)(=O)c1ccc(-n2nc(C(F)(F)F)cc2-c2ccc(-c3ccc(Cl)cc3)cc2)cc1 [Compound 46, 4-[5-(4′-chloro[1,1′-biphenyl]-4-yl)-3-(trifluoromethyl)-1H-pyrazol-1-yl]benzenesulfonamide]	–	9	22
NS(=O)(=O)c1ccc(-n2nc(C(F)(F)F)cc2-c2ccc(-c3ccccc3)cc2)cc1 [Compound 45]	21	11	–
